Converted amounts (≈) assume the structure as drawn. “Also recorded” adds a separate entry of the source.
Columns and labels:
KYSE-450 = test: Cytotoxicity assay (MTT), KYSE-450; type: cell-based; details: 48 h, 1.56-50 μg/mL tested; for Cytotoxicity against KYSE-450, IC50: human esophageal carcinoma cells; for IC50: KYSE-450, human esophageal carcinoma cells, read-out: Cytotoxicity against KYSE-450, IC50
Experimental: (§1) Test compounds were dissolved in dimethyl sulfoxide (DMSO) to make stock solutions and further diluted in culture medium. Human esophageal carcinoma cell lines (KYSE-70, KYSE-150, KYSE-450 and KYSE-520) were cultured in RPMI 1640 or DMEM medium containing 10% fetal bovine serum and 1% antibiotics (Penicillin and strep). 3×10^3 cells/well were seeded in a 96-well plate and allowed to attach to the plate overnight. After the recovery, cells were treated with 1.56, 3.125, 6.25, 12.5, 25, 50 μg/mL of compounds in culture medium for 48 h. Then, 20 μL of MTT (5 mg/mL stock in PBS) per well was added into the medium (200 μL) and incubated for 4 h at 37° C. Finally, the culture medium was removed and 200 μL of DMSO were added. Absorbance of the solution was measured using microplate reader spectrophotometer (Bio-Rad Laboratories, Inc., Hercules, Calif.) at a wavelength of 570 nm.

KYSE-70 = test: Cytotoxicity assay (MTT), KYSE-70; type: cell-based; details: 48 h, 1.56-50 μg/mL tested; for Cytotoxicity against KYSE-70, IC50: human esophageal carcinoma cells; for IC50: KYSE-70, human esophageal carcinoma cells, read-out: Cytotoxicity against KYSE-70, IC50
Experimental: as §1

KYSE-150 = test: Cytotoxicity assay (MTT), KYSE-150; type: cell-based; details: human esophageal carcinoma cells, 1.56-50 μg/mL tested; for Cytotoxicity against KYSE-150, IC50: 48 h; for IC50: Homo sapiens, KYSE-150, 48 h, read-out: Cytotoxicity against KYSE-150, IC50
Experimental: as §1

KYSE-520 = test: Cytotoxicity assay (MTT), KYSE-520; type: cell-based; details: human esophageal carcinoma cells, 1.56-50 μg/mL tested; for IC50: Homo sapiens, KYSE-520, 48 h, read-out: Cytotoxicity against KYSE-520, IC50
Experimental: as §1

KYSE-150 cells = test: Tumor xenograft mouse model; type: in vivo, nude female mice; details: KYSE-150 xenograft
Experimental: The tumor xenograft mice were treated with a vehicle or compound 9 at 15 or 30 mg/kg once a day […] for 12 days. Tumor size was measured every two days and body weight was measured every day. On day 13, the mice were sacrificed, and tumor weight was measured (n=5, *p<0.05, **p<0.01, ***p<0.001, ****p<0.0001).
Six to eight weeks old nude female mice weighing about 16-20 g were purchased from the Laboratory Animal Services Center, the Chinese University of Hong Kong, and 2×10^6 KYSE-150 cells in […] saline were injected subcutaneously into the flanks of the mice. When the tumor volume reached about 100 mm^3, the mice were randomly divided into three groups (n=5). The control group was administered with saline, while compound 9 treatment groups were given different doses of 9 (15 or 30 mg/kg, respectively) by intraperitoneal injection. Tumor volume were measured by vernier caliper every two days for 12 days, and calculated according to the formula: Volume=(width)^2×length/2. At the end of observation, mice were killed to remove the tumors. Then the samples were fixed in 4% paraformaldehyde and embedded in paraffin. Five-micro-meter sections were stained with hematoxylin/eosin according to a standard procedure. Animal protocol was approved by the committee for Care of Laboratory Animals in the School of Chinese Medicine at the Hong Kong Baptist University.

[1] = 15 or 30 mg/kg once a day for 12 days

SMILES: COc1cc(C[C@@H](CO)[C@H](CO)Cc2cc(OC)c(O)c(OC)c2)cc(OC)c1O [Compound 2, 5,5′-Dimethoxysecoiso-lariciresinol]
- Cytotoxicity against KYSE-450, IC50 (KYSE-450): 39.21 μg/mL
- Cytotoxicity against KYSE-450, IC50 (KYSE-450; listed as compound 2): ~50 μg/mL
- Cytotoxicity against KYSE-70, IC50 (KYSE-70): 47.22 μg/mL
- Cytotoxicity against KYSE-70, IC50 (KYSE-70; listed as compound 2): ~50 μg/mL
- Cytotoxicity against KYSE-150, IC50 (KYSE-150): 49.63 μg/mL
- Cytotoxicity against KYSE-150, IC50 (KYSE-150; listed as compound 2): ~50 μg/mL

SMILES: COc1cc(CC(C)C(O)(CO)Cc2cc(OC)c(O)c(OC)c2)ccc1O (stereo not shown) [Compound 3, 2-(4-Hydroxy-3,5-dimethoxybenzyl)-3-(4-hydroxy-3-methoxybenzyl)-1,2-butanediol]
- IC50 (KYSE-450): > 50 µg/mL
- IC50 (KYSE-520): > 50 µg/mL
- IC50 (KYSE-70): > 50 µg/mL
- IC50 (KYSE-150): 34.5 µg/mL (≈ 87.9 µM)

SMILES: COc1cc([C@H]2Oc3c(OC)cc(CCCO)cc3[C@@H]2CO)ccc1O [Compound 8, Dihydrodehydrodiconifery Alcohol]
- IC50 (KYSE-450): > 50 µg/mL
- IC50 (KYSE-520): ~30 µg/mL (≈ 83.2 µM)
- Cytotoxicity against KYSE-520, IC50 (KYSE-520; 48 h): 37.34 μg/mL
- IC50 (KYSE-70): > 50 µg/mL
- IC50 (KYSE-150): ~30 µg/mL (≈ 83.2 µM)
- Cytotoxicity against KYSE-150, IC50 (KYSE-150): 31.86 μg/mL

SMILES: COc1cc([C@H]2OC[C@H]3[C@@H]2CO[C@@H]3c2cc(OC)c(O)c(OC)c2)cc(OC)c1O [Compound 9, Syringaresinol]
- body weight (KYSE-150 cells; [1]): suppresses the body weight; also recorded: less body weight loss
- toxic death (KYSE-150 cells; [1]): no toxic death
- weight of tumor (KYSE-150 cells; 15 or 30 mg/kg once a day for 12 days, day 13): suppresses the weight of tumor
- tumor growth / size of tumor (KYSE-150 cells; 15 or 30 mg/kg once a day for 12 days, vs control): suppresses the size of tumor; also recorded: significant tumor growth delay
- H&E staining of the tumor tissue (histological manifestation) (KYSE-150 cells; 15 or 30 mg/kg, vs control (orderly and tightly)): obviously loose and messy
- IC50 (KYSE-450): > 50 µg/mL
- IC50 (KYSE-520): > 50 µg/mL
- IC50 (KYSE-70): > 50 µg/mL
- IC50 (KYSE-150): > 50 µg/mL

Reference: patent US9775857B2, “Lignans isolated from Lasia spinosa (L.) Thwait” (Hong Kong Baptist University, priority 2015, dated 2017)
